Tests used:
APP = experiment: Expression of the precursor APP in brain of 5XFAD mice; assay type: in vivo, mouse
Method: Western blot analyses. Cell or mouse muscle and brain extracts were prepared in lysis buffer containing 50 mM Tris (pH 7.4), 150 mM NaCl, 1 mM EDTA, 1% Triton X-100, halt proteinase inhibitor cocktail (ThermoFisher Scientific) and halt phosphatase inhibitor cocktail (ThermoFisher Scientific), and subjected to western blot analysis with anti-LC3 (Novus Biologicals, NB100-2220), anti-SQSTM 1 (Abnova, H00008878-M01), anti-Af342 (Invitrogen; 700254), anti-APP (Biolegend; 803001), HRP-conjugated GFP antibody (Santa Cruz Biotechnology, sc9996), anti-HA (Cell Signaling Technology, C29F4), anti-ATG7 (Sigma Aldrich; A2856), anti-LDLR (Abeam, ab52818), anti-LRP 1 (Abeam, ab92544), and anti-ACTB/f3-actin-HRP (Santa Cruz Biotechnology, sc47778 HRP) antibodies. The band intensity was analyzed using the ImageJ software.

amyloid plaques = experiment: Amyloid plaques stained by thioflavin S or Aβ42 antibody in brain of 5XFAD mice; assay type: in vivo, mouse
Method: Scale bar: 500 μm. Results represent mean±s.e.m. N=6-8. *, P<0.05; **, P<0.01, t test.
Immunofluorescence microscopy. Paraformaldehyde-fixed brain tissues were sectioned at 30 μm thickness. Free-floating sagittal sections were immunostained with 1% thioflavin S (Sigma-Aldrich, 230456) for 20 minutes. Additional sections were immunostained with Aβ (Invitrogen, 700254, 1:500) and Alexa Fluro 594 goat anti rabbit (ThermoFisher Scientific, Al 1012). Sections were mounted on slides with mounting medium containing DAPI (Vectashield) and then analyzed by fluorescence microscopy under the 10× objective.

5XFAD mice = experiment: Morris water maze test of 5XFAD mice; assay type: in vivo, mouse
Method: Escape latency and total distance traveled in visible platform test and hidden platform test are shown. N=10-11. Results represent mean±s.e.m. Two-way repeated measures ANOVA.
Escape latency and total distance traveled in visible platform test and hidden platform test are shown. Results represent mean±s.e.m. Statistics were analyzed by the IBM SPSS Statistics Tools comparing differences between 2 curves.
Morris water maze testing. For animal behavior, 6-month old mice were tested. The Morris water maze test consists of two sections: the visible platform testing and hidden platform testing. During the tests, mice were placed in the water tank filled with opaque water (maintained at 25° C.), with their heads facing toward the tank wall. In the visible platform section, a black platform extending 2 cm above the water level was used for these trials. For each trial, the platform was randomly positioned, and the mouse was placed in the tank at different start positions. The trial was stopped after the mouse found and climbed onto the platform, and the escape latency was recorded. […] Mice were tested for 4 days with eight trials per day. In the hidden platform section, a transparent platform underneath the water level was used instead of the black one during all trials, mice were tested with a fixed platform location over 5 days period with six trials per day, and they were allowed to search the platform in 60 s. In the tests, two parameters were evaluated: the trail duration (s) and distance to the platform (m).

[1] = Brain penetration / pharmacokinetics study; conditions: for brain penetration: mouse, in vivo
Beclin 2-GASP1 binding = experiment: Coimmunoprecipitation of endogenous GASP1 with endogenous Beclin 2 from mouse brain lysates; assay type: in vivo; conditions: injection to WT mice
Text: Lysates in each group were pooled from 3 mice.
Based on this model, the effect of these inducers on the Beclin 2-GASP1 interaction in vitro and in mouse brain were subsequently examined.

HTT aggregates = experiment: Fluorescence imaging of HTT inclusions in HeLa cells; assay type: cell-based
Text: Blue, DAPI. Results represent mean±s.e.m. Scale bar: 20 μm. Statistics compare each value to the one under the “-” condition. **, P<0.01; ***, P<0.001; NS, not significant, t test.
ML246 promotes the removal of intracellular aggregates formed by polyglutamine (polyQ)-expansion proteins. HeLa cell lines stably expressing tetracycline-repressible expanded polyQ-repeat protein HTT (huntingtin) was used as a model, HTT65Q and HTT103Q. In contrast to the HTT protein with the normal number of glutamine repeats (HTT25Q), HTT65Q and HTT103Q formed insoluble polyQ aggregates larger than 0.2-μm diameter, which can be detected by filter trap assay. […] Fluorescence imaging further confirmed that ML246 administration decreased the number of cells positive for HTT aggregates, which is also in an ATG7-dependent manner (FIG. S6B).
Accordingly, whether Rg2 affects the clearance of proteinaceous inclusions in vitro was next determined, using HeLa cell lines expressing tetracycline-repressible expanded polyglutamine (polyQ)-repeat protein HTT (huntingtin), HTT65Q and HTT103Q. Unlike the HTT protein with the normal number of glutamine repeats (HTT25Q), HTT65Q and HTT103Q formed insoluble polyQ aggregates larger than 0.2-μm diameter, which were detected by filter trap assays (FIG. 5A).

Aβ42 = experiment: Dot blot assay of Aβ42 in brain of 5XFAD mice; assay type: in vivo, mouse
Method: Total protein loading was labeled by Ponceau S. N=5. **, P<0.01, t test.
Total protein loading was labeled by Ponceau S. Triplicate experiments from 4-5 mice in each group were shown. Results represent mean±s.e.m. NS, not significant; *, P<0.05; **, P<0.01; ***, P<0.001, t test.
Total protein loading was labeled by Ponceau S. Triplicate experiments from 4 mice in each group were shown.
Dot blot assay. Snap frozen hemi-brain were homogenized in 800 μl phosphate-buffered saline (PBS; Sigma-Aldrich, D8537) with 1% Triton X-100 supplemented with halt proteinase inhibitor cocktail (ThermoFisher Scientific), and halt phosphatase inhibitor cocktail (ThermoFisher Scientific). Protein concentration was quantified using BCA Assay (Pierce). For Af342 dot blots, 10 mg/ml brain homogenates were extracted in guanidine buffer (5 M guanidine-HCl [GuHCl], 50 mM Tris HCl pH 8.0) overnight at room temperature. One μl of sample was spotted in triplicate on 0.2 μm nitrocellulose membrane, and dried for 1 h at 37° C. The membrane was stained with Ponceau S, and the dot blot signal on the membrane was detected by immunostaining with Aβ42 antibody (Invitrogen, 700254, 1:1000) and HRP-conjugated secondary antibody (Santa Cruz Biotechnology, sc2004, 1:2000). Aβ42 signals were normalized to the Ponceau S staining. To separate soluble and insoluble Aβ fractions, 10 mg/ml of the total homogenated brains were centrifuged at 14000 rpm, 4° C. for 30 min. The supernatant (soluble fraction) was used directly for dot blot assays. The pellet (insoluble fraction) was extracted in guanidine buffer overnight at room temperature, and used in dot blot analyses. […] One μl of each sample was spotted on nitrocellulose membrane for dot blot analysis.

[2] = 6-month old 5XFAD mice, ML246 5 mg/kg i.p. for 5 weeks

SMILES	expression of the precursor APP (APP; ML246 for 5 weeks)	amyloid plaques (amyloid plaques; 5XFAD mice, 5 weeks of ML246)	performance during the hidden platform trials (5XFAD mice; 6-month old 5XFAD mice, ML246 daily for 5 weeks)	brain penetration [1]	binding between endogenous Beclin 2 and endogenous GASP1 (Beclin 2-GASP1 binding)	number of cells positive for HTT aggregates (HTT aggregates; ML246)	insoluble Aβ42 in brain (Aβ42; [2])	soluble Aβ42 in brain (Aβ42; [2])	effect on brain Aβ42 (Aβ42; autophagy-deficient 5XFAD Becn1+/− KO mice, ML246 5 weeks)	expression of the precursor APP (APP; Rg2 for 16 weeks)	number of amyloid plaques (amyloid plaques; Rg2-treated 5XFAD mice, thioflavin or Aβ42 antibody)	escape latency and distance, hidden platform (5XFAD mice; 5XFAD mice, Rg2 for 4 months)	escape latency or distance, visible platform (5XFAD mice; WT, vehicle-treated and Rg2-treated mice)	brain level ([1]; 24 h postinjection)	time of peak brain level after injection ([1]; brain) [min]	number of cells positive for HTT aggregates (HTT aggregates; Rg2)	level of brain Aβ42 (Aβ42; Rg2 injection for 16 weeks in 2 month-old male 5XFAD mice vs vehicle (DMSO))
N=c1c2c(-c3ccccc3)c(-c3ccccc3)n(Cc3ccccc3)c2ncn1[C@H]1CC[C@H](O)CC1 [ML246]	not affected	trend of plaque reduction	improved the performance	can pass the blood-brain barrier	dramatically decreased	decreased	decreased levels	decreased levels	abolished								
CC(C)=CCC[C@](C)(O)[C@H]1CC[C@]2(C)[C@@H]1[C@H](O)C[C@@H]1[C@@]3(C)CC[C@H](O)C(C)(C)[C@@H]3[C@@H](O[C@@H]3O[C@H](CO)[C@@H](O)[C@H](O)[C@H]3O[C@@H]3O[C@@H](C)[C@H](O)[C@@H](O)[C@H]3O)C[C@]12C [Rg2, ginsenoside Rg2]				able to enter the brain	dramatically decreased					remained unaffected	significantly fewer number	significantly improved performance	no significant difference	still detectable	15	reduced	effectively decreased

— patent US11241436B2, “Autophagy inducers for treatment of CNS conditions” (Northwestern University, priority 2017, dated 2022)
